According to patent US9834558B2, “Substituted bridged urea analogs as sirtuin modulators” (GLAXOSMITHKLINE LLC, priority 2013, dated 2017):
Where two headings read alike, the source gives them in different places.

Biological target: T1, SIRT1 (Homo sapiens, UniProt Q96EB6)
T1 sequence (Q96EB6 1-747): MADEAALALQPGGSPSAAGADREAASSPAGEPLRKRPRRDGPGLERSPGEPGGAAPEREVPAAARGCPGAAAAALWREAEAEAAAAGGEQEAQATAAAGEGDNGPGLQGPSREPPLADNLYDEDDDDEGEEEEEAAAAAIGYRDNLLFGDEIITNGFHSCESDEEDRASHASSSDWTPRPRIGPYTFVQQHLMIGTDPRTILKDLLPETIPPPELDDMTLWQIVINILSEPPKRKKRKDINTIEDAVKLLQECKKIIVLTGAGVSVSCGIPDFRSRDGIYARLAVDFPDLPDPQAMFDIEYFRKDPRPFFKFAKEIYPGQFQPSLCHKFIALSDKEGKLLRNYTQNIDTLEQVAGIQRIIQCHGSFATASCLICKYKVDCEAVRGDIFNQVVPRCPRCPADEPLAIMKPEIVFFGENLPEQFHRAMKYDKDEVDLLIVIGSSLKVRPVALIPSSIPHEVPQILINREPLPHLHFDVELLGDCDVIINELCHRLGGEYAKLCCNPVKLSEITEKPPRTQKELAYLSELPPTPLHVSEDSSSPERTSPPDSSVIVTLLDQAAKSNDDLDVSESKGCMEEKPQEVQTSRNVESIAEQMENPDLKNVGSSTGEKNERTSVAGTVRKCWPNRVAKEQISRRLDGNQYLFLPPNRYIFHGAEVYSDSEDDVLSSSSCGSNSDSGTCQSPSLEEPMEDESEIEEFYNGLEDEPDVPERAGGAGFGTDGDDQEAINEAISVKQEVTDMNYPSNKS
Experiment: Trp mass spectrometry assay of SIRT1 activation
Format: biochemical
Conditions: for TRP Activity (EC1.5): EC1.5 = concentration that results in 150% activation of SIRT1
Summary of the method: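 N-terminal His-tagged human SIRT1 (10 nM, E. coli BL21(DE3)) with 0.5 μM Ac-RHKK(Ac)W-NH2 peptide and 120 μM βNAD+, 25 min at 25 °C in HEPES pH 7.5, formic acid stop. OAADPR or deacetylated peptide quantified by mass spectrometry; EC1.5 (50% activity increase over control) and Percent Maximum Activation reported.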

[1] = Trp peptide assay, maximum activity relative to control (100%), read-out: TRP MAX RESP (percent maximum fold activation)
[2] = Trp mass spectrometry assay, EC1.5 = concentration of test compound that results in 150% activation of SIRT1
[3] = Trp mass spectrometry assay, concentration of test compound giving 150% activation of SIRT1
[4] = concentration giving 150% activation of SIRT1, Trp peptide substrate

## O=C(Nc1ccnc(OC[C@H](O)CO)n1)N1c2nc(-c3cccc(C(F)(F)F)c3)ccc2N2CC[C@H]1C2 [(9S)-N-{2-[(2R)-2,3-dihydroxypropoxy]pyrimidin-4-yl}-5-[3-(trifluoromethyl)phenyl]-1,6,8-triazatricyclo[7.2.1.0 {2,7}]dodeca-2(7),3,5-triene-8-carboxamide]
Trp peptide assay
  TRP Activity (EC1.5): A (A (EC1.5<1 μM))
[1]
  Emax: > 150%

## O=C(Nc1ccccn1)N1c2nc(N3CCC[C@H]3C(F)(F)F)ccc2N2CCC[C@H]1C2 [(9S)-N-(pyridin-2-yl)-5-[(2S)-2-(trifluoromethyl)pyrrolidin-1-yl]-1,6,8-triazatricyclo[7.3.1.0 {2,7}]trideca-2(7),3,5-triene-8-carboxamide]
Trp peptide assay
  TRP Activity (EC1.5): B (B (EC1.5 1-25 μM))
[1]
  Emax: > 150%

## COc1cc(NC(=O)N2c3nc(-c4ccnc(N5CC[C@H](F)C5)c4)ccc3N3CC[C@H]2C3)ncn1 [Example 437]
[2]
  Tryp AVG EC1.5 (μM): B (B (EC1.5 1-25 μM))

## CS(=O)(=O)c1cccc(-c2ccc3c(n2)N(C(=O)Nc2cnccn2)[C@H]2CCN3C2)c1 [Example 415]
[3]
  Tryp AVG EC1.5 (μM): A (A (EC1.5<1 μM))

## Cc1ccc(-c2ccc3c(n2)N(C(=O)NC2CCOCC2)[C@H]2CCN3C2)cn1 [(9S)-5-(6-methylpyridin-3-yl)-N-(oxan-4-yl)-1,6,8-triazatricyclo[7.2.1.0^{2,7}]dodeca-2(7),3,5-triene-8-carboxamide]
Trp peptide assay
  TRP Activity (EC1.5): C (C (EC1.5>25 μM))
[1]
  Emax: < 150%

## [N-]=[N+]=Nc1cc(N=[N+]=[N-])cc(-c2ccc3c(n2)N(C(=O)Nc2ccc(F)cn2)[C@H]2CCN3C2)c1 [Example 806]
[4]
  Tryp AVG EC1.5 (μM): A (A (EC1.5<1 μM))
Percent maximum fold activation of SIRT1, Trp peptide substrate, read-out: Tryp % Fold Act
  Emax: > 150%

## COc1nccnc1NC(=O)N1c2nc(-c3ccnc(C)c3)ccc2N2CC[C@H]1C2 [Example 501]
[2]
  Tryp AVG EC1.5 (μM): B (B (EC1.5 1-25 μM))

## O=C(Nc1cccnc1)N1c2nc(-c3cncc(C(F)(F)F)c3)ccc2N2CC[C@H]1C2 [Example 392]
[3]
  Tryp AVG EC1.5 (μM): A (A (EC1.5<1 μM))

## COc1cc(NC(=O)N2c3nc(-c4cccnc4)ccc3N3CCC[C@H]2C3)ncn1 [Example 442]
[2]
  Tryp AVG EC1.5 (μM): B (B (EC1.5 1-25 μM))

## N#Cc1cncc(-c2ccc3c(n2)N(C(=O)Nc2cnccn2)[C@H]2CCN3C2)c1 [Example 459]
[2]
  Tryp AVG EC1.5 (μM): A (A (EC1.5<1 μM))

## O=C(Nc1ccnc(OC[C@H](O)CO)c1)N1c2nc(-c3cccc(C(F)(F)F)c3)ccc2N2CC[C@H]1C2 [(9S)-N-{2-[(2R)-2,3-dihydroxypropoxy]pyridin-4-yl}-5-[3-(trifluoromethyl)phenyl]-1,6,8-triazatricyclo[7.2.1.0 {2,7}]dodeca-2(7),3,5-triene-8-carboxamide]
Trp peptide assay
  TRP Activity (EC1.5): A (A (EC1.5<1 μM))
[1]
  Emax: > 150%

## Cn1cc(-c2ccc3c(n2)N(C(=O)Nc2cccnc2)[C@H]2CCN3C2)cn1 [Example 395]
[3]
  Tryp AVG EC1.5 (μM): B (B (EC1.5 1-25 μM))

## Cc1cc(-c2ccc3c(n2)N(C(=O)Nc2cnccn2)[C@H]2CCN3C2)cnn1
Trp peptide assay
  TRP Activity (EC1.5): B (B (EC1.5 1-25 μM))
[1]
  Emax: > 150%

## O=C(Nc1ccncc1F)N1c2nc(-c3cccc(Cl)c3)ccc2N2CCC[C@H]1C2 [Example 421]
[2]
  Tryp AVG EC1.5 (μM): A (A (EC1.5<1 μM))

## O=C(NCCc1ccccc1)N1c2nc(-c3cccc(C(F)(F)F)c3)ccc2N2CC[C@H]1C2 [Example 598]
[2]
  Tryp AVG EC1.5 (μM): B (B (EC1.5 1-25 μM))

## O=C(Nc1cnccn1)N1c2nc(-c3cccc(Cl)c3)ccc2N2CC[C@H]1C2 [Example 101]
Trp peptide substrate, concentration giving 150% activation of SIRT1
  Tryp AVG EC1.5 (μM): A (A (EC1.5<1 μM))

## O=C(Nc1ccncn1)N1c2nc(-c3cncc(F)c3)ccc2N2CCC1CC2 [Example 573]
[2]
  Tryp AVG EC1.5 (μM): C (C (EC1.5>25 μM))

## Cn1ccc(-c2ccc3c(n2)N(C(=O)Nc2cccnc2)[C@H]2CCN3C2)cc1=O [(9S)-5-(1-methyl-2-oxo-1,2-dihydropyridin-4-yl)-N-(pyridin-3-yl)-1,6,8-triazatricyclo[7.2.1.0 {2,7}]dodeca-2(7),3,5-triene-8-carboxamide]
Trp peptide assay
  TRP Activity (EC1.5): B (B (EC1.5 1-25 μM))
[1]
  Emax: > 150%

## O=C(CCCCCNC(=O)c1ccc(-c2c3ccc(=O)cc-3oc3cc(O)ccc23)c(C(=O)O)c1)NCc1ccc(NC(=O)N2c3nc(-c4cccc(C(F)(F)F)c4)ccc3N3CCC[C@H]2C3)cc1 [546 (3), 2-(6-hydroxy-3-oxo-3H-xanthen-9-yl)-5-((6-oxo-6-((4-((9S)-2-(3-(trifluoromethyl)phenyl)-7,8,9,10-tetra-hydro-6H-5,9-methanopyrido[2,3-b][1,4]diazocine-10-carboxamido)benzyl)amino)hexyl)carbamoyl)benzoic acid]
[2]
  Tryp AVG EC1.5 (μM): B (B (EC1.5 1-25 μM))

## Cc1cc(-c2ccc3c(n2)N(C(=O)N2CCCCC2)[C@H]2CCN3C2)ccn1 [(9S)-5-(2-methylpyridin-4-yl)-8-[(piperidin-1-yl)carbonyl]-1,6,8-triazatricyclo[7.2.1.0 {2,7}]dodeca-2,4,6-triene]
Trp peptide assay
  TRP Activity (EC1.5): C (C (EC1.5>25 μM))
[1]
  Emax: < 150%

## Cc1cc(-c2ccc3c(n2)N(C(=O)N2CCN(C)CC2)[C@H]2CCN3C2)ccn1 [(9S)-8-[(4-methylpiperazin-1-yl)carbonyl]-5-(2-methylpyridin-4-yl)-1,6,8-triazatricyclo[7.2.1.0 {2,7}]dodeca-2,4,6-triene]
Trp peptide assay
  TRP Activity (EC1.5): C (C (EC1.5>25 μM))
[1]
  Emax: < 150%

## Cc1cc(-c2ccc3c(n2)N(C(=O)Nc2cnccn2)[C@H]2CCN3C2)cnc1C [(9S)-5-(5,6-dimethylpyridin-3-yl)-N-(pyrazin-2-yl)-1,6,8-triazatricyclo[7.2.1.0 {2,7}]dodeca-2(7),3,5-triene-8-carboxamide]
Trp peptide assay
  TRP Activity (EC1.5): A (A (EC1.5<1 μM))
[1]
  Emax: > 150%

## O=C(Nc1ccccn1)N1c2nc(-c3cccc(C(F)(F)F)c3)ccc2N2CC[C@@H]1C2 [Example 823]
[4]
  Tryp AVG EC1.5 (μM): A (A (EC1.5<1 μM))

## O=C(O[C@@H]1CN2C[C@H]1N(C(=O)Nc1ccccn1)c1nc(-c3cccc(C(F)(F)F)c3)ccc12)c1ccccc1 [Example 603]
[2]
  Tryp AVG EC1.5 (μM): C (C (EC1.5>25 μM))

## O=C(Nc1cccc(-c2cnco2)n1)N1c2nc(-c3cccc(C(F)(F)F)c3)ccc2N2CCC1CC2 [Example 596]
[2]
  Tryp AVG EC1.5 (μM): A (A (EC1.5<1 μM))

## CS(=O)(=O)c1cncc(-c2ccc3c(n2)N(C(=O)Nc2ccncn2)[C@H]2CCCN3C2)c1 [Example 379]
[3]
  Tryp AVG EC1.5 (μM): A (A (EC1.5<1 μM))

## O=C(Nc1ccncn1)N1c2nc(-c3cncc(C(F)(F)F)c3)ccc2N2CCC[C@H]1C2 [Example 393]
[3]
  Tryp AVG EC1.5 (μM): A (A (EC1.5<1 μM))

## Cc1cc(NC(=O)N2c3nc(-c4cccc(C(F)(F)F)c4)ccc3N3CC[C@H]2C3)cc(Br)n1 [Example 540]
[2]
  Tryp AVG EC1.5 (μM): A (A (EC1.5<1 μM))

## Cc1nc(NC(=O)N2c3nc(-c4cccc(N(C)C)c4)ccc3N3CCC[C@H]2C3)sc1C [Example 383]
[3]
  Tryp AVG EC1.5 (μM): A (A (EC1.5<1 μM))

## O=C(Nc1ccccn1)N1c2nc(-c3ccnc(N4CC[C@@H](F)C4)c3)ccc2N2CC[C@H]1C2 [Example 448]
[2]
  Tryp AVG EC1.5 (μM): B (B (EC1.5 1-25 μM))

## Cc1nn(C)cc1-c1ccc2c(n1)N(C(=O)Nc1cccnc1)[C@H]1CCN2C1 [Example 488]
[2]
  Tryp AVG EC1.5 (μM): B (B (EC1.5 1-25 μM))

## O=C(Nc1cccnc1)N1c2nc(N3CCOC[C@@H]3CO)ccc2N2CC[C@H]1C2 [(9S)-5-[(3S)-3-(hydroxymethyl)morpholin-4-yl]-N-(pyridin-3-yl)-1,6,8-triazatricyclo[7.2.1.0 {2,7}]dodeca-2(7),3,5-triene-8-carboxamide]
Trp peptide assay
  TRP Activity (EC1.5): C (C (EC1.5>25 μM))
[1]
  Emax: < 150%

## O=C(Nc1cncc(F)c1)N1c2nc(-c3ccnc(N4CCC(C(F)(F)F)C4)c3)ccc2N2CC[C@H]1C2 (stereo partly shown) [Example 410]
[3]
  Tryp AVG EC1.5 (μM): A (A (EC1.5<1 μM))

## NCc1cnnn1-c1cccc(NC(=O)N2c3nc(-c4cccc(C(F)(F)F)c4)ccc3N3CC[C@H]2C3)c1 [Example 640]
[4]
  Tryp AVG EC1.5 (μM): A (A (EC1.5<1 μM))

## O=C(Nc1ccncc1F)N1c2nc(-c3cccc(CC(O)CO)c3)ccc2N2CC[C@H]1C2 (stereo partly shown) [Example 357]
[3]
  Tryp AVG EC1.5 (μM): B (B (EC1.5 1-25 μM))

## Cc1cc(-c2ccc3c(n2)N(C(=O)Nc2cccc4nccnc24)[C@H]2CCN3C2)ccn1 [(9S)-5-(2-methylpyridin-4-yl)-N-(quinoxalin-5-yl)-1,6,8-triazatricyclo[7.2.1.0 {2,7}]dodeca-2,4,6-triene-8-carboxamide]
Trp peptide assay
  TRP Activity (EC1.5): A (A (EC1.5<1 μM))
[1]
  Emax: > 150%

## O=C(CCCCCNC(=O)c1ccc2c(c1)C(=O)OC21c2ccc(O)cc2Oc2cc(O)ccc21)NCc1ncc(-c2cccc(NC(=O)N3c4nc(-c5cccc(C(F)(F)F)c5)ccc4N4CC[C@H]3C4)c2)o1 [Example 708]
[4]
  Tryp AVG EC1.5 (μM): A (A (EC1.5<1 μM))
